# Where “and” joins values, the source holds several entries; their conditions need not be identical. Equal entries are not always repeated.
# What was measured:
# [1] = test system: left primary motor cortex; test: Resting motor threshold (RMT) by TMS with EMG of abductor pollicis brevis; type: in vivo, human
# Protocol: (§1) Study design: We performed a randomized, double-blind, crossover trial involving two visits at least one week apart (FIG. 8). […] Serum LTG levels, RMTs, and interleaved TMS/phMRI images during both motor and then prefrontal TMS were then gathered for each subject. One week later they received LTG or placebo again, followed by identical RMT and interleaved TMS/phMRI studies.
# (§2) General Procedure: After arriving at the laboratory in the early afternoon, baseline RMT was determined and baseline plasma levels of LTG were drawn. They were then given a single oral dose of 325 mg LTG or placebo. They then waited quietly for 3 hours. Three hours after taking the oral pill, RMT was determined and serum plasma levels were again drawn.
# TMS: Focal TMS was delivered by a MAGSTIM Super Rapid stimulator (Magstim Co, Whitland, Dyfed, U.K) and applied through a focal figure-of-eight magnetic coil (each wing 70 mm in diameter). The optimal position of the magnetic coil for eliciting a MEP in the right abductor pollicis brevis (APB) was determined by holding the coil tangential to the scalp, and moving it in small steps over the presumed area of the left primary motor cortex at a slightly suprathreshold stimulus intensity. The coil was always held horizontally with the handle pointing backward and laterally at 45 degrees from the midline. This position was marked with a pen on a reusable latex swimming cap in order to assure constant placement of the coil throughout the visits. Stimulus intensity and threshold values were expressed as percent of the maximal stimulator output.
# Resting Motor Threshold (RMT): Surface electromyographic (EMG) was recorded from the APB using 9-mm Ag—AgCl electrodes in a belly-tendon montage. The placement of electrodes on the thumb and hand was marked with a pen for exact re-placement in consecutive visits on the same day. The raw EMG signal was amplified by a factor of 100 gain and band-pass filtered, […] with a High Performance Band pass Filter Model V-7548 (LAB Linc. Co). The EMG was recorded on a G3 Macintosh with MacCRO (version 2.1).
# RMT was determined in the resting APB in 4 steps: In step one and step three, thresholds were approached from a slightly suprathreshold intensity by reducing the stimulus intensity in 1% steps with a 5 sec interval between pulses, whereas in steps two and four, thresholds were approached from a slightly subthreshold intensity by increasing the stimulus intensity. RMT was defined as the first intensity that produced a MEP of greater than 50 μV in 3 out of 6 trials in the resting target muscle. A mean RMT for baseline or after medication was calculated by averaging the four values. Determination of the RMT using this technique usually lasted 30 minutes.
# The percent change of RMT=100[(post-dose RMT−pre-dose RMT)/pre-dose RMT]. Paired Student's t tests (two tailed) were performed for the percent change of RMT between LTG and placebo. Wilcoxon nonparametric tests were performed for the number of active voxels in the region of interests (ROI) between LTG and placebo. We performed Pearson correlations between the percent change of RMT and the change of active voxel number. Two-way analysis of variance (ANOVA) was performed for % BOLD signal change in the different intensity stimulation and the different medication conditions. All statistical analyses were performed using SPSS 10.0 (Statistical Product and Service Solutions Inc, Chicago Ill.).
# [2] = test system: motor corticospinal pathways; settings: volunteers or patients with complex partial seizures; cited from earlier work
# [3] = Safety and tolerability in the crossover trial; type: in vivo, human; settings: single oral dose of 325 mg LTG; healthy young men
# Protocol: as §1, §2
# [4] = single oral dose of 325 mg of LTG; transiently (for 3 hours); cited from earlier work
structure (smiles),measurement,setting,value
"Nc1nnc(-c2cccc(Cl)c2Cl)c(N)n1 [LTG, Lamotrigine]",RMT Post-3 hours,"[1]; LTG visit, 3 hours after single oral dose of 325 mg LTG, individual subjects 1-12",75.25% of machine maximum output (Magstim) and 66.25% of machine maximum output (Magstim) and 66.50% of machine maximum output (Magstim) and 99.00% of machine maximum output (Magstim) and 55.25% of machine maximum output (Magstim) and 100.00% of machine maximum output (Magstim) (2×) and 101.00% of machine maximum output (Magstim) (2×) and 64.50% of machine maximum output (Magstim) and 68.25% of machine maximum output (Magstim) and 95.25% of machine maximum output (Magstim)
same,"RMT Post-3 hours, mean","[1]; LTG visit, 3 hours after single oral dose of 325 mg LTG, mean of 12 subjects",82.69% of machine maximum output (Magstim)
same,RMT % Change from baseline,"[1]; LTG visit, post-dose 3 hours vs pre-dose same day, individual subjects 1-12",8.27% and 28.02% and 7.26% and 30.26% and 1.38% and 3.63% and 26.10% and 19.53% and 8.86% and 15.76% and 12.81% and 16.87%
same,"RMT % Change from baseline, mean","[1]; LTG visit, post-dose 3 hours vs same day baseline, mean of 12 subjects, placebo 0.6%",14.9%
same,TMS resting motor threshold compared with placebo,"[1]; all 12 subjects, day subjects received LTG",significant increase
same,resting motor threshold (RMT),[2],significantly increased
same,adverse effects of the drug treatment or the stimulation,[3],None of the subjects reported experiencing adverse effects
same,serum concentrations after single oral dose,[4],equal to steady state levels at clinically relevant chronic doses

# — patent publication US20090024021A1, “Methods and Systems for Using Transcranial Magnetic Stimulation and Functional Brain Mapping for Examining Cortical Sensitivity, Brain Communication, and Effects of Medication” (priority 2002, published 2009)
